The structures appear in SMILES notation. Several values for one entry are separate records, joined by “and”; a condition that tells them apart may be missing. Equal entries are not always repeated. Where two headings read alike, the source gives them in different places.

Here are results for three compounds from US20230240989A1, “LIPOSOMAL OZONE NANOSOLUTIONS” (priority 2021, published 2023).

Data set [1] relates to female rats of Sprague downey breed. Conditions: skin biopsy of laparotomy incision line, group average.
Text: A total of 72 skin biopsies of 72 animals from the abdomen were examined in the experimental groups in the applications on the wound lips on the skin line where the incision was made; Physiological Salt Water (FTS), 1% Lidocaine, ozone-free nanosolution, 250 ppm ozone nanosolution, 500 ppm ozone nanosolution, 500 ppm ozone nanosolution+2% Lidocaine (50% blend), 1000 ppm Ozone nanosolution+2% Lidocaine (50% blend) and 2000 ppm ozone nanosolution+2% Lidocaine (50% blend). Lesions were scored and group average scores were obtained.
Data set [2] deals with inner cheek pouch of Syrian hamsters. Kind of data set: Oral mucosal irritation test. As to the method:
Oral mucosal irritation test was carried out considering the TS EN ISO 10993-10:2010 standard, the experimental animal used in the test is considered according to TS EN ISO 10993-2:2006 standard, the material preparation is made according to TS EN ISO 10993-12:2012 standard guidelines. The test is performed for materials intended to come into contact with oral tissue and where safety data cannot be obtained by other means.
Animals were acclimated to the environment by taking care of them as specified in TS EN ISO 10993-2:2006. Healthy young adult Syrian hamsters of both sexes, unrelated to a single strain, were used for testing. Product sample-impregnated gauze was placed in the inner cheek pouch of each animal under ketamine/Xylazine anesthesia. The exposure time was evaluated according to the rule of reflecting the actual expected use time of the material, and the sample was kept in the inner cheek pouch for 1 hour.
Test material given under the title of ISO 10993-10:2010 annex A A.2,2 Liquid test materials; Liquids were applied without dilution or by direct precipitation or, if not applicable, at a dose of 1600 ppm, which is the usage dose according to the guideline. Saline solution-impregnated absorbent gauze was used as negative control. As a positive control, HCl acid solution adjusted to pH 1.5 was used in our laboratory based on the rule that liquids with pH 2 and below are considered irritating.
The left inner cheek pouch of each animal was evaluated for the experimental sample, and the contralateral (Right) inner cheek was considered as the negative control. No material was placed into the right side inner cheek pouch, it was only washed with physiological saline and dissected at the end of the experiment.
Gauze cloth impregnated with a usage dose of 1600 ppm of the nanosolution of the invention was placed in the left inner cheek pouch of Syrian hamsters under ketamine/Xylazine anesthesia, whose inner cheeks were emptied and washed with saline. After the exposure of the subject to the sample for 1 hour, the sample was removed and the inner cheek was rinsed with saline solution, taking care not to contaminate the other cheek. Experiment (left) and control (right) inner cheek pouches were evaluated macroscopically according to chart 1. The experiment was terminated after 1 hour of contact.
According to the standard directive, the exposure time should reflect the actual expected use time of the material, but should not be less than 5 minutes. The repeated observation rating (Table 1) performed at long-term chronic exposures is summed up and divided by the total repeat application 4. Since it is a device with subacute use, the application was performed 4 times with one hour intervals. Observations of the sample applied left inner cheek were compared with the right inner cheeks (negative control) washed with saline.

For data set [3], the system named is back skin of New Zealand albino rabbits. Kind of data set: Skin irritation test TS EN ISO 10993-10 (barrier solution). From the text: Three healthy young New Zealand albino rabbits with a body weight of 2-3 kg were used as experimental animals.
Test material given under the title of TS EN ISO 10993-10:2010 annex A A.2,2 Liquid test materials; Liquids were applied without dilution or by direct precipitation or, if not applicable, at a dose of 1600 ppm, which is the usage dose according to the guideline. […] The sponge impregnated with the nanosolution of the invention was kept in direct contact with the sample application areas. SLS impregnated sponge was applied to the positive control area. The samples were covered with gauze, fixed with a bandage, and topically contacted with the back skin for 4 hours. The primary irritation index was determined by evaluating the application areas (1±0.1) […], and (72±2) hours after the 4th hour application, according to the skin reaction score given in Chart 1. As stated in the standard, the 1st hour was not included in the calculation.

Data set [4] has as its system albino guinea pigs. Kind of data set: Sensitization test, Closed Patch-Buehler method. The settings on record: per animal.
The subject of data set [5] is back skin of New Zealand albino rabbits. The data set is described as follows: Irritation test TS EN ISO 10993-10 (injection solution). It is filed as in vivo, rabbit. The settings on record: for Primary irritation score (score average): 24th-72nd hour, 1st hour not included.
Text: Test material given under the title of TS EN ISO 10993-10:2010 annex A A.2,2 Liquid test materials; Liquids should be tested without dilution or by direct precipitation or, if not applicable, by diluting with physiological saline to ¼ dose, which is the usage dose in accordance with the directive that it should be tested by diluting with a suitable liquid.
Sodium lauryl sulphate (SLS) was used as a positive control and distilled water was used as a negative control.
SLS-impregnated sponge was applied to the positive control area (area no 3). The samples were covered with gauze, fixed with a bandage, and topically contacted with the back skin for 4 hours.
The primary irritation index was determined by evaluating the application areas (1±0.1) s, (24±2) s, (48±2) s, and (72±2) hours after the 4th hour application, according to the skin reaction score given in Chart 1. As stated in the standard, the 1st hour was not included in the calculation.
Data set [6] deals with BALB/c 3T3 (CCL-163) cell line. The settings on record: mouse, 48 h.
For data set [7], the system named is L-929 mouse fibroblast cell line. The settings on record: 48 h.
Where [8] appears, read: left cheek (experiment), single subject.

With `CCN(CC)CC(=O)Nc1c(C)cccc1C` [1% lidocaine], in data set [1], the “Collagen Epidermis/Dermis (%)” value was 25.33 ± 2.46%. In addition, in data set [1] (scoring out of 3), the Bleeding score came to 0.83 ± 0.54, the Connective tissue score was 2.67 ± 0.33, the Edema score is 0.67 ± 0.33 and the Inflammation score worked out at 2.50 ± 0.34. This compound yielded a Vascular formation score in data set [1] (scoring out of 3) of 1.83 ± 0.17.
On to `CCCCCCCCCCCCOS(=O)(=O)[O-].[Na+]` [Positive control, Sodium lauryl sulphate], for which the “macroscopic examination of inner cheek mucosa” value in data set [2] (hamster, in vivo) is “Areas of mucosal erosion were noted”. Further, in data set [2] (setting [8]), the “Microscopic irritation score Edema” value was 0. Further, in data set [2] (setting [8]), the “Microscopic irritation score Epithelium” value was determined as 3. In data set [2] (setting [8]), the “Microscopic irritation score Leukocyte infiltration” value is reported as 2 (Mild (26 to 50)). Besides, the “Microscopic irritation score Vascular congestion” value in data set [2] (setting [8]) was determined as 1. In data set [3] (24th, 48th, 72nd hours), the “Primary Irritation Score Rabbit 1” value came to 2.167 ± 1.169. Further, the “Primary Irritation Score Rabbit 2” value in data set [3] (24th, 48th, 72nd hours) was 1.333 ± 1.2. The “Primary Irritation Score Rabbit 3” value in data set [3] (24th, 48th, 72nd hours) was 1.500 ± 1.049. The “Primary Irritation Index” value in data set [3] (three rabbits) and in data set [5] (mean of three rabbits) was 1.666 throughout. The “Magnusson and Kligman Rating” value in data set [4] (24th hour after stimulation, 2020 Oct. 27) is 2; in data set [4] (48th hour after stimulation, 2020 Oct. 28), 2; in data set [4] (Induction first week, application date 2020 Sep. 24, 6 h closed patch), 1; in data set [4] (Induction first week, application date 2020 Sep. 26, 6 h closed patch) it was 1; in data set [4] (Induction first week, application date 2020 Sep. 28, 6 h closed patch), 1; in data set [4] (Induction, application date 2020 Oct. 2, 6 h closed patch, sulphate), 2 (3×) and 1 (2×). For the same compound, the “Magnusson and Kligman Rating” value in data set [4] (Induction, application date 2020 Oct. 4, 6 h closed patch) was 2; in data set [4] (Induction, application date 2020 Oct. 7, 6 h closed patch), 2; in data set [4] (Induction, application date 2020 Oct. 9, 6 h closed patch, sulphate) it was 2 (4×) and 3; in data set [4] (Induction, application date 2020 Oct. 12, 6 h closed patch, sulphate), 3 (4×) and 2; in data set [4] (Induction, application date 2020 Sep. 31, 6 h closed patch, sulphate) it was 1 (4×) and 2; in data set [4] (Stimulation application, 2020 Oct. 26, sulphate) it was 2 (4×) and 3. Besides, the “Primary irritation score (score average)” value was 2.167 ± 1.169 in data set [5] (Rabbit 1), 1.333 ± 1.211 in data set [5] (Rabbit 2) and 1.500 ± 1.049 in data set [5] (Rabbit 3).
As to `C[S+](C)[O-]` [PC, Dimethylsulfoxide], the Vitality % in data set [6] (3 % v/v) was 31.25%; in data set [6] (10 % v/v) it was 24.37%; in data set [7] (10 % v/v), 53.44%; in data set [7] (30 % v/v), 36.46%. The “Optical density (OD) mean value 570 nm ± standard deviation (SD)” value in data set [6] (10 % v/v) was 0.1 ± 0.06; in data set [6] (30 % v/v), 0.078 ± 0.02.
